Measured values taken from patent US4965280A, “Antifungal carbinols” (E. I. Du Pont de Nemours and Company, priority 1989, dated 1990).
In brackets after ≈: the same amount, converted by molar mass. Like-named read-outs stand apart in the source and are kept apart here.

Key:
[1] = test system: Candida albicans ATCC 11651; experiment: In vivo systemic Candida infection in mice, primary assay; parameters: species or system Candida albicans; CF-1 female mice; conditions: Candida albicans, read-out: % Survival
How it was run: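 CF-1 female mice (20 g, 10 per group) were infected IV with 0.2 ml of 1×10^7/ml C. albicans ATCC 11651, then given test compound subcutaneously at 50 or 150 mg/kg/day at 1 and 6 h post-infection and once daily for three more days. Survival was followed for 21 days against infected untreated mice; ≥70% protection at 14 days was scored active.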

[2] = test system: Venturia inaequalis; experiment: Example A apple scab; format: in vivo; conditions: read-out: disease control rating, Ex. A
How it was run: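 Acetone solution (6% of final vol.) → suspension at 100 or 20 ppm in water + 250 ppm TREM 014 surfactant; sprayed to run-off on apple seedlings.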

[3] = test system: Cercosporidium personatum; experiment: Example B Peanut Late Leafspot; format: in vivo; conditions: Nothopassalora personata, read-out: disease control rating, Ex. B
How it was run: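 Foliar spray on peanut seedlings, to run-off; test rates 100 or 20 ppm. Formulation: acetone at 6% of final volume, water with 250 ppm polyhydric alcohol ester surfactant.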

[4] = test system: Botrytis cinerea; experiment: Example C bean grey mold; format: in vivo; conditions: Botrytis cinerea, 24 h, read-out: disease control rating, Ex. C
How it was run: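 Broad bean seedlings; foliar spray to run-off. Cmpd 100 or 20 ppm in water + 250 ppm TREM 014, acetone 6% v/v final.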

[5] = test system: Erysiphe graminis f. sp. tritici; experiment: Example D wheat powdery mildew; format: in vivo; conditions: Blumeria graminis, 144 h, read-out: disease control rating, Ex. D
How it was run: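 Spray to run-off on wheat seedlings; test suspension 100 or 20 ppm compound, acetone 6% v/v, 250 ppm polyhydric alcohol ester surfactant in water.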

[6] = test system: Pyricularia oryzae; experiment: whole plant or invertebrate; format: in vivo; conditions: Pyricularia oryzae, 120 h; for pest or weed control at 100 ppm: read-out: disease control rating, Ex. E, 100 PPM
[7] = test system: Rhizoctonia solani; experiment: Example F rice sheath blight; format: in vivo; conditions: Rhizoctonia solani, 144 h, read-out: disease control rating, Ex. F
How it was run: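 Spray to run-off on rice seedlings; test suspension 100 or 20 ppm compound in water + 250 ppm TREM 014 surfactant, acetone 6% final volume.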

[8] = test system: Puccinia recondita; experiment: Example G wheat leaf rust; format: in vivo; conditions: read-out: disease control rating, Ex. G
[9] = test system: Phytophthora infestans; experiment: whole plant or invertebrate; format: in vivo; conditions: Phytophthora infestans, in Solanum lycopersicum, read-out: disease control rating, Ex. H, 100 PPM
[10] = test system: Plasmorpara viticola; experiment: Example I grape downy mildew; format: in vivo; conditions: read-out: disease control rating, Ex. I
How it was run: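 Applied as a foliar spray to run-off on grape seedlings, the compounds were formulated at 100 or 20 ppm in water containing 250 ppm TREM 014, with acetone making up 6% of the volume.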

[11] = test system: Pythium aphanadermatum; experiment: Example J cucumber damping off; format: in vivo; conditions: Pythium, 336 h; 5 kg/ha; read-out: disease control rating, Ex. J
How it was run: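 This cucumber damping-off test used soil and seeds infested with a sand–cereal preparation carrying mycelium of Pythium aphanadermatum. Incubation took place in a growth chamber held at 30° C. for 14 days. Afterwards, the extent of disease was scored as a disease control rating.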

[12] = test system: Rhizoctonia solani; experiment: Example K cotton blight; format: in vivo; conditions: 336 h, 5 kg/ha, read-out: disease control rating, Ex. K
Description: […] Seeds and soil were then inoculated with a mixture of sand, cereal and mycelium of the fungus Rhizoctonia solani, causal agent of cotton blight, and incubated in a growth chamber at 30° C. for 14 days. Disease ratings were then made.

[13] = test system: Fusarium oxysporum f. sp. cucumerinum; experiment: Example L cucumber wilt; format: in vivo; conditions: 336 h, 5 kg/ha, read-out: disease control rating, Ex. L
Description: […] Seeds and soil were then inoculated with a mixture of sand, cereal and mycelium of the fungus Fusarium oxysporum f. sp. cucumerinum, causal agent of cucumber wilt, and incubated in a growth chamber at 30° C. for 14 days. Disease ratings were then made.

[14] = test system: Sclerotium rolfsii; experiment: Example M southern blight; format: in vivo; conditions: Agroathelia rolfsii, 336 h; 5 kg/ha; read-out: disease control rating, Ex. M
Description: […] Seeds and soil were then inoculated with a mixture of sand, cereal and mycelium of the fungus Sclerotium rolfsii, causal agent of sourthern blight, and incubated in a growth chamber at 30° C. for 14 days. Disease ratings were then made.

[15] = test system: Candida albicans ATCC 11651; experiment: In vitro antifungal MIC, microtiter broth dilution; conditions: Candida albicans, ATCC11651, 24 h, read-out: MIC values, C. albicans, 30°, 24 hours
[16] = test system: Aspergillus fumigatus ATCC 28214; experiment: In vitro antifungal MIC, microtiter broth dilution; conditions: Aspergillus fumigatus, ATCC28214, 24 h, read-out: MIC values, A. fumigatus, 30°, 24 hours
[17] = ATCC11651, 168 h, 150 mg/kg per day, day 7
[18] = ATCC11651, 336 h, 150 mg/kg per day, day 14
[19] = ATCC11651, 504 h, 150 mg/kg per day, day 21

SMILES | pest or weed control at 100 ppm [2] [%] | pest or weed control at 100 ppm [3] [%] | pest or weed control at 100 ppm [4] [%] | pest or weed control at 100 ppm [5] [%] | pest or weed control at 100 ppm [6] [%] | pest or weed control at 100 ppm [7] [%] | pest or weed control at 100 ppm [8] [%] | pest or weed control at 100 ppm [9] [%] | pest or weed control at 100 ppm [10] [%] | pest or weed control at 5000 g/ha [11] [%] | pest or weed control at 5000 g/ha [12] [%] | pest or weed control at 5000 g/ha [13] [%] | pest or weed control at 5000 g/ha [14] [%] | MIC [15] [µg/mL] | MIC [16] [µg/mL] | responders at 150 mg/kg [1, 17] [%] | responders at 150 mg/kg [1, 18] [%] | responders at 150 mg/kg [1, 19] [%] | further results
C=C(c1ccc(F)cc1)C(Cn1cncn1)(OC(=O)NC)c1ccc(F)cc1 (stereo not drawn) [Example 363] | 0 | 49 | 92 | 28 | 0 | 0 | 38 | 0 | 0 | 0 | 0 | 0 | 0 | 100 (≈ 260 µM) | 100 (≈ 260 µM) |  |  |  | responders at 150 mg/kg ([1]; ATCC11651, 168 h): 10%; responders at 150 mg/kg ([1]; ATCC11651, 336 h): 0%; responders at 150 mg/kg ([1]; ATCC11651, 504 h): 0%
C=C(CN(C)C)C(O)(Cn1cncn1)c1ccc(Cl)cc1Cl (stereo not drawn) [Example 453] | 55 | 32 | 75 | 94 | 0 | 0 | 100 | 0 | 0 | 0 | 0 | 0 | 0 | 1.6 (≈ 4.69 µM) | > 100 | 60 | 40 | 30 | 
C=C(c1ccc(F)cc1)C(O)(Cn1cncn1)c1ccccc1Cl (stereo not drawn) [Example 646] | 100 | 100 | 95 | 98 | 97 | 61 | 100 | 0 | 99 | 100 | 0 | 0 | 0 | 0.03 (≈ 0.0873 µM) | 0.4 (≈ 1.16 µM) | 100 | 100 | 70 | 
C=C(c1ccc(F)cc1)C(O)(Cn1cncn1)c1ccc(Cl)c(Cl)c1 (stereo not drawn) [Example 651, 2-(3,4-Dichlorophenyl)-3-(4-fluorophenyl)-1-(1H-1,2,4-triazol-1-yl)-3-buten-2-ol] |  |  | 42 |  | 0 | 62 |  | 0 | 46 | 0 | 0 | 0 | 0 | 0.8 (≈ 2.12 µM) | 100 (≈ 264 µM) | 100 | 50 | 20 | pest or weed control at 20 ppm ([2]; 20 PPM): 67%; pest or weed control at 20 ppm ([3]; 20 PPM): 0%; pest or weed control at 20 ppm ([4]; 20 PPM): 7%; pest or weed control at 20 ppm ([5]; 20 PPM): 67%; pest or weed control at 20 ppm ([6]; read-out: disease control rating, Ex. E, 20 PPM): 0%; pest or weed control at 20 ppm ([7]; 20 PPM): 0%; pest or weed control at 20 ppm ([8]; 20 PPM): 100%
